How the values were obtained:
IKZF2 = target: T1, IKZF2 (Homo sapiens, UniProt Q96SW2+Q9UKS7); test: Western-blot assay of substrate protein degradation in hPBMCs, IKZF2; type: cell-based; settings: 24 hours of compound treatment, compounds tested at 50 nM and 500 nM (concentration of the table not stated)
T1 construct: endogenous in cells; host or cells: hPBMCs (Milecell Biotechnologies)

WEE1 = target: T2, WEE1 (Homo sapiens, UniProt P30291+Q96SW2); test: Western-blot assay of substrate protein degradation in hPBMCs, WEE1; type: cell-based; settings: 24 hours of compound treatment, compounds tested at 50 nM and 500 nM (concentration of the table not stated)
T2 construct: endogenous in cells; host or cells: hPBMCs (Milecell Biotechnologies)

CK1α = target: T3, CK1α (Homo sapiens, UniProt P48729+Q96SW2); test: Western-blot assay of substrate protein degradation in hPBMCs, CK1α; type: cell-based; settings: 24 hours of compound treatment, compounds tested at 50 nM and 500 nM (concentration of the table not stated)
T3 construct: endogenous in cells; host or cells: hPBMCs (Milecell Biotechnologies)

GSPT1 = target: T4, GSPT1 (Homo sapiens, UniProt P15170+Q96SW2); test: Western-blot assay of substrate protein degradation in hPBMCs, GSPT1; type: cell-based; settings: 24 hours of compound treatment, compounds tested at 50 nM and 500 nM (concentration of the table not stated)
T4 construct: endogenous in cells; host or cells: hPBMCs (Milecell Biotechnologies)

[1] = target: T5, human Cereblon WT GST-tagged protein (Homo sapiens, UniProt Q96SW2); test: CRBN-binding affinity by HTRF (CEREBLON BINDING kit); settings: HTRF inhibitory activity, CEREBLON BINDING kit; read-out: HTRF IC50
T5 construct: purchased CISBIO 64BDCRBNPEH
Protocol: The CEREBLON BINDING kits (specification: 10,000 tests; product number: Catalog # 64BDCRBNPEH; CISBIO company) was used to determine the CRBN binding ability of the compounds to be tested through a HTRF method (homogeneous time-resolved fluorescence). The specific methods are as follows: • 1. […] Specifically, diluent #9 (1X) solution was used as the diluent, and multiple concentration gradients were set. […] Then, 2.5 µL of human Cereblon WT GST-tagged protein solution was added to each well. Finally, 5 µL of the thoroughly mixed Thalidomide-Re reagent and GST Eu antibody working solution were added to each of the aforementioned wells. […] The blank control wells were sequentially added with 2.5 µL of diluent #9 (1X) solution, 2.5 µL of binding buffer, and 5 µL of thoroughly mixed Thalidomide-Re reagent and GST Eu antibody working solution. • 4.

IKZF3 = target: T6, IKZF3 (Homo sapiens, UniProt Q96SW2+Q9UKT9); test: Western-blot assay of substrate protein degradation in hPBMCs, IKZF3; type: cell-based; settings: 24 hours of compound treatment, compounds tested at 50 nM and 500 nM (concentration of the table not stated)
T6 construct: endogenous in cells; host or cells: hPBMCs (Milecell Biotechnologies)

IKZF1 = target: T7, IKZF1 (Homo sapiens, UniProt Q13422+Q96SW2); test: Western-blot assay of substrate protein degradation in hPBMCs, IKZF1; type: cell-based; settings: 24 hours of compound treatment, compounds tested at 50 nM and 500 nM (concentration of the table not stated)
T7 construct: endogenous in cells; host or cells: hPBMCs (Milecell Biotechnologies)
T7 sequence (Q13422 whole entry): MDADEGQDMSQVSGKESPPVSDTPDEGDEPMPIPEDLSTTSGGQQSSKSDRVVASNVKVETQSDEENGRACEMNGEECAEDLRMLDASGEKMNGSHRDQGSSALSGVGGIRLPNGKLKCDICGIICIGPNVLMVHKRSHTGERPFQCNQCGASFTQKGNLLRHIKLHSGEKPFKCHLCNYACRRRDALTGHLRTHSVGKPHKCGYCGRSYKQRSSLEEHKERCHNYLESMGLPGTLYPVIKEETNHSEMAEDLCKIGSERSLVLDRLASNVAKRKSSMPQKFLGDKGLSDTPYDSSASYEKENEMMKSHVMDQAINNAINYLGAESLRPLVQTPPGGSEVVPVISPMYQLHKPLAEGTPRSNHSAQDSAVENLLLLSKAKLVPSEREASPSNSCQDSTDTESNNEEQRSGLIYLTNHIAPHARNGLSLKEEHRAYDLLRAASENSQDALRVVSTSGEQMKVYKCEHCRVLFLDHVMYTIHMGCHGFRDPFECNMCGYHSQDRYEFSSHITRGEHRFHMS
T7 sequence (Q96SW2 whole entry): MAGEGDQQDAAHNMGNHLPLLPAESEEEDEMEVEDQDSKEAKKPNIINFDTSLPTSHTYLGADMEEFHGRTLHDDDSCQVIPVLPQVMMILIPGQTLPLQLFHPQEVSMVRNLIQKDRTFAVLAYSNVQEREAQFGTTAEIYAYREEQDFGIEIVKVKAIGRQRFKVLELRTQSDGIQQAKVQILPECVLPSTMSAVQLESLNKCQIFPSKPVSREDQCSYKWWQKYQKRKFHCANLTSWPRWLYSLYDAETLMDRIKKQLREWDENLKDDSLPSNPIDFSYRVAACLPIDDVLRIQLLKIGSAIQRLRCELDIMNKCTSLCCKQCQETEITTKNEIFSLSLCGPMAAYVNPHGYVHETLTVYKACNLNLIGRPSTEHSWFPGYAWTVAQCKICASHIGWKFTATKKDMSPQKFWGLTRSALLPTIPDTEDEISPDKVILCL
T7 sequence (Q16531 whole entry partner): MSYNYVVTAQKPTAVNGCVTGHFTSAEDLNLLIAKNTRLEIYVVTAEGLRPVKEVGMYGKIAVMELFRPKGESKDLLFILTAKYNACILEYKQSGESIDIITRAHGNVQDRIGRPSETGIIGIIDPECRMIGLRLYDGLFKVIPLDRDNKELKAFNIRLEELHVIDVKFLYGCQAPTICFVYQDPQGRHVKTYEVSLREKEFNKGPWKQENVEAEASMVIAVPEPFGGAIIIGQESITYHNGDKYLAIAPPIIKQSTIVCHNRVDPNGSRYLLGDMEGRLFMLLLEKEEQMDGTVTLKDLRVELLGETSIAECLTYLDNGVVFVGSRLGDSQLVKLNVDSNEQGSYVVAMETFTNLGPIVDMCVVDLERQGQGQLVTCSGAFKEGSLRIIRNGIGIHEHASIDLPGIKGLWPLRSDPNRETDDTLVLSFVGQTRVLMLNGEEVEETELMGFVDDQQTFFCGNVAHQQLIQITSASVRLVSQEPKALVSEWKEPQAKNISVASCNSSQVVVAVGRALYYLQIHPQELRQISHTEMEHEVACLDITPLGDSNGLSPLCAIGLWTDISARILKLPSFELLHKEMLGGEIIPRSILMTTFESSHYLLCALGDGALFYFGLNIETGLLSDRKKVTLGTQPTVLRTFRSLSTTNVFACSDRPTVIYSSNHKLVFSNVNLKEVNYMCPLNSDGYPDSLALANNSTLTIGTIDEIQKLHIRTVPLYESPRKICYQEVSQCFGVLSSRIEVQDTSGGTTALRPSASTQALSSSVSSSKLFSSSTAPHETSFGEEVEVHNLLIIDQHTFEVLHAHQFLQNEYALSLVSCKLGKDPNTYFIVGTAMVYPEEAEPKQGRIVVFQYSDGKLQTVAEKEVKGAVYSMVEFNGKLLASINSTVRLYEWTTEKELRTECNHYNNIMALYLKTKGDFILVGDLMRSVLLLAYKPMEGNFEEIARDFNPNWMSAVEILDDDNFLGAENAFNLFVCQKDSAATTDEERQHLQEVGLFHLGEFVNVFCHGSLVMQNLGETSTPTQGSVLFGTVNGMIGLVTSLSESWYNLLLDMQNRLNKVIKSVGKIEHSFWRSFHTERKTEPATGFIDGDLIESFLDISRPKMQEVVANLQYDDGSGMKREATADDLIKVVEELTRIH

T5 sequence (Q96SW2 whole entry): as the sequence (Q96SW2 whole entry) above
T4 sequence (P15170 whole entry): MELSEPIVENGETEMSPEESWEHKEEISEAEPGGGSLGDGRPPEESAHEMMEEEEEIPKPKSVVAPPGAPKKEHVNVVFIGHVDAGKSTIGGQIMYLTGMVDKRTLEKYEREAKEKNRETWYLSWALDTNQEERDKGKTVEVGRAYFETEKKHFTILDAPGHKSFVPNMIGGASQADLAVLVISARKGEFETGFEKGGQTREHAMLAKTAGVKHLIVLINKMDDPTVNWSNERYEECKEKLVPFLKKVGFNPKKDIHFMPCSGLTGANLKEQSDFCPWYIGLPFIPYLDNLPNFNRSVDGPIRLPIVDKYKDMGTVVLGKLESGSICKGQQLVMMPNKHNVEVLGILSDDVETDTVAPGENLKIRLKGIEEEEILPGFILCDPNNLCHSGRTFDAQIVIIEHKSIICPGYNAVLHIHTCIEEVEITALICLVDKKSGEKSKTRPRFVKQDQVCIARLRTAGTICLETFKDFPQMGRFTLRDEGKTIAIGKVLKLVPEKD
T4 sequence (Q96SW2 whole entry): as the sequence (Q96SW2 whole entry) above
T4 sequence (Q16531 whole entry partner): as the sequence (Q16531 whole entry partner) above
T2 sequence (P30291 whole entry): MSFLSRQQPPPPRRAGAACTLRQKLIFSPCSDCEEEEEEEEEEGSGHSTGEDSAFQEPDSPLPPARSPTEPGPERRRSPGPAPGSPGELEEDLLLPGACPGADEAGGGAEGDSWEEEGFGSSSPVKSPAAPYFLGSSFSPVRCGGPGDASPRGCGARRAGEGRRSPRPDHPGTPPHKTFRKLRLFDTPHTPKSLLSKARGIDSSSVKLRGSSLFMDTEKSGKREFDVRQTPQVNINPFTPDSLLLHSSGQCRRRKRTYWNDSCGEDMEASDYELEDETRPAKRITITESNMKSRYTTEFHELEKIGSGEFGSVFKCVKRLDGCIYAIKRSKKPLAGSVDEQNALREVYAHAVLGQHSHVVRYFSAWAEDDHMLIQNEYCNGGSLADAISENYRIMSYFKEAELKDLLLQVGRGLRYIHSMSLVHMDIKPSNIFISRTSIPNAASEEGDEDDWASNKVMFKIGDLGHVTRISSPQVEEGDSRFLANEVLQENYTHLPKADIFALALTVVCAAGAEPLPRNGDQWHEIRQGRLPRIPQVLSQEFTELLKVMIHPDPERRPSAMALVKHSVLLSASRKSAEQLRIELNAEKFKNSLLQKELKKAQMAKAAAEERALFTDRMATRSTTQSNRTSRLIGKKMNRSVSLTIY
T2 sequence (Q96SW2 whole entry): as the sequence (Q96SW2 whole entry) above
T2 sequence (Q16531 whole entry partner): as the sequence (Q16531 whole entry partner) above
T1 sequence (Q9UKS7 whole entry): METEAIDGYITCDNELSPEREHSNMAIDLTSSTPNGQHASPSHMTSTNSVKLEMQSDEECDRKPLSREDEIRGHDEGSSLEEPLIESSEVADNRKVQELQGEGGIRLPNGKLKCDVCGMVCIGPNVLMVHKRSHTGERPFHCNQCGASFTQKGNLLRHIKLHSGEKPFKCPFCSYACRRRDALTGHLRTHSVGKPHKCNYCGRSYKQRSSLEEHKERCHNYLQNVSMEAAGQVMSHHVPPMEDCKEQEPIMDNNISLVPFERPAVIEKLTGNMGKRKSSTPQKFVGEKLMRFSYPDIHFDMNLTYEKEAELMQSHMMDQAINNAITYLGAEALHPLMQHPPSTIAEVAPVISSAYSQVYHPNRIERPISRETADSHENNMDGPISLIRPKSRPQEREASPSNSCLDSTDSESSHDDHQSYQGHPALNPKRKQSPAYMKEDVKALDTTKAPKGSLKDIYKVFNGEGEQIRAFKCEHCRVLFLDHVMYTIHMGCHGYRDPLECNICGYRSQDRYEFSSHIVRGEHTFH
T1 sequence (Q96SW2 whole entry): as the sequence (Q96SW2 whole entry) above
T1 sequence (Q16531 whole entry partner): as the sequence (Q16531 whole entry partner) above
T3 sequence (P48729 whole entry): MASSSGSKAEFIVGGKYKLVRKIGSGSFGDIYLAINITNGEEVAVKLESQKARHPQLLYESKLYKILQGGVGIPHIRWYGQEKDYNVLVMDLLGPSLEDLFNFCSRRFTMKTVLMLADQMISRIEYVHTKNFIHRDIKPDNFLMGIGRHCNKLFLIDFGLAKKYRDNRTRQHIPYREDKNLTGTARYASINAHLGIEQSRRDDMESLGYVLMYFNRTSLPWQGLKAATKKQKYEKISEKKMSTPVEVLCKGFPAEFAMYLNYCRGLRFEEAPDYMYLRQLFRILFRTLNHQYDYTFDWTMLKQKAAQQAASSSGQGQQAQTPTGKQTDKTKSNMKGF
T3 sequence (Q96SW2 whole entry): as the sequence (Q96SW2 whole entry) above
T3 sequence (Q16531 whole entry partner): as the sequence (Q16531 whole entry partner) above

IC50 [1] [nM]	Structure (SMILES)	IKZF2 substrate protein remaining % (IKZF2)	Weel substrate protein remaining % (WEE1)	CK1a substrate protein remaining % (CK1α)	GSPT1 substrate protein remaining % (GSPT1)	IKZF3 substrate protein remaining % (IKZF3)	IKZF 1 substrate protein remaining % (IKZF1)
500 to 1000	O=C1CCC(N2Cc3cc(CN4CCN(c5ccncc5Cl)CC4)ccc3C2=O)C(=O)N1 (stereo not drawn) [GT-04481, 3-(5-((4-(3-chloropyridin-4-yl)piperazin-1-yl)methyl)-1-oxoisoindolin-2-yl)piperidine-2,6-dione]	A (0% ≤ substrate protein remaining % ≤ 80%)	A (0% ≤ substrate protein remaining % ≤ 80%)	A (0% ≤ substrate protein remaining % ≤ 80%)	A (0% ≤ substrate protein remaining % ≤ 80%)	B (80%< substrate protein remaining %≤ 100%)	A (0% ≤ substrate protein remaining % ≤ 80%)
500 to 1000	O=C1CCC(N2Cc3cc(CN4CCN(c5ccc(Cl)nn5)CC4)ccc3C2=O)C(=O)N1 (stereo not drawn) [GT-04482, 3-(5-((4-(6-chloropyridazin-3-yl)piperazin-1-yl)methyl)-1-oxoisoindolin-2-yl)piperidine-2,6-dione]	A (0% ≤ substrate protein remaining % ≤ 80%)	A (0% ≤ substrate protein remaining % ≤ 80%)	A (0% ≤ substrate protein remaining % ≤ 80%)	A (0% ≤ substrate protein remaining % ≤ 80%)	B (80%< substrate protein remaining %≤ 100%)	B (80%< substrate protein remaining %≤ 100%)
500 to 1000	O=C1CCC(N2Cc3cc(CN4CCN(c5cnccn5)CC4)ccc3C2=O)C(=O)N1 (stereo not drawn) [GT-04483, 3-(1-oxo-5-((4-(pyrazin-2-yl)piperazin-1-yl)methyl)isoindolin-2-yl)piperidine-2,6-dione]	A (0% ≤ substrate protein remaining % ≤ 80%)	A (0% ≤ substrate protein remaining % ≤ 80%)	A (0% ≤ substrate protein remaining % ≤ 80%)	A (0% ≤ substrate protein remaining % ≤ 80%)	B (80%< substrate protein remaining %≤ 100%)	B (80%< substrate protein remaining %≤ 100%)
500 to 1000	O=C1CCC(N2Cc3cc(CN4CCN(c5ncccn5)CC4)ccc3C2=O)C(=O)N1 (stereo not drawn) [GT-04484, 3-(1-oxo-5-((4-(pyrimidin-2-yl)piperazin-1-yl)methyl)isoindolin-2-yl)piperidine-2,6-dione]	A (0% ≤ substrate protein remaining % ≤ 80%)	A (0% ≤ substrate protein remaining % ≤ 80%)	A (0% ≤ substrate protein remaining % ≤ 80%)	A (0% ≤ substrate protein remaining % ≤ 80%)	B (80%< substrate protein remaining %≤ 100%)	B (80%< substrate protein remaining %≤ 100%)
500 to 1000	O=C1CCC(N2Cc3cc(CN4CCN(c5ncncn5)CC4)ccc3C2=O)C(=O)N1 (stereo not drawn) [GT-04486, 3-(5-((4-(1,3,5-triazin-2-yl)piperazin-1-yl)methyl)-1-oxoisoindolin-2-yl)piperidine-2,6-dione]	A (0% ≤ substrate protein remaining % ≤ 80%)	A (0% ≤ substrate protein remaining % ≤ 80%)	A (0% ≤ substrate protein remaining % ≤ 80%)	A (0% ≤ substrate protein remaining % ≤ 80%)	B (80%< substrate protein remaining %≤ 100%)	A (0% ≤ substrate protein remaining % ≤ 80%)
500 to 1000	O=C1CCC(N2Cc3cc(CN4CCC(c5ccccc5C(F)(F)F)CC4)ccc3C2=O)C(=O)N1 (stereo not drawn) [GT-04488, 3-(1-oxo-5-((4-(2-(trifluoromethyl)phenyl)piperidin-1-yl)methyl)isoindolin-2-yl)piperidine-2,6-dione]	A (0% ≤ substrate protein remaining % ≤ 80%)	B (80%< substrate protein remaining %≤ 100%)	A (0% ≤ substrate protein remaining % ≤ 80%)	A (0% ≤ substrate protein remaining % ≤ 80%)	B (80%< substrate protein remaining %≤ 100%)	B (80%< substrate protein remaining %≤ 100%)
500 to 1000	Cc1cc(N2CCN(Cc3ccc4c(c3)CN(C3CCC(=O)NC3=O)C4=O)CC2)cc(C)n1 (stereo not drawn) [GT-04492, 3-(5-((4-(2,6-dimethylpyridin-4-yl)piperazin-1-yl)methyl)-1-oxoisoindolin-2-yl)piperidine-2,6-dione]	B (80%< substrate protein remaining %≤ 100%)	B (80%< substrate protein remaining %≤ 100%)	A (0% ≤ substrate protein remaining % ≤ 80%)	A (0% ≤ substrate protein remaining % ≤ 80%)	B (80%< substrate protein remaining %≤ 100%)	B (80%< substrate protein remaining %≤ 100%)
500 to 1000	O=C1CCC(N2Cc3cc(CN4CCN(c5c(F)c(F)nc(F)c5F)CC4)ccc3C2=O)C(=O)N1 (stereo not drawn) [GT-04499, 3-(1-oxo-5-((4-(perfluoropyridin-4-yl)piperazin-1-yl)methyl)isoindolin-2-yl)piperidine-2,6-dione]	A (0% ≤ substrate protein remaining % ≤ 80%)	A (0% ≤ substrate protein remaining % ≤ 80%)	A (0% ≤ substrate protein remaining % ≤ 80%)	A (0% ≤ substrate protein remaining % ≤ 80%)	A (0% ≤ substrate protein remaining % ≤ 80%)	A (0% ≤ substrate protein remaining % ≤ 80%)
500 to 1000	O=C1CCC(N2Cc3cc(CN4CCN(c5cc(Cl)nnc5Cl)CC4)ccc3C2=O)C(=O)N1 (stereo not drawn) [GT-04500, 3-(5-((4-(3,6-dichloropyridazin-4-yl)piperazin-1-yl)methyl)-1-oxoisoindolin-2-yl)piperidine-2,6-dione]	A (0% ≤ substrate protein remaining % ≤ 80%)	A (0% ≤ substrate protein remaining % ≤ 80%)	A (0% ≤ substrate protein remaining % ≤ 80%)	A (0% ≤ substrate protein remaining % ≤ 80%)	A (0% ≤ substrate protein remaining % ≤ 80%)	A (0% ≤ substrate protein remaining % ≤ 80%)
< 500	O=C1CCC(N2Cc3cc(CN4CCN(c5ncnc(Cl)c5Cl)CC4)ccc3C2=O)C(=O)N1 (stereo not drawn) [GT-04501, 3-(5-((4-(5,6-dichloropyrimidin-4-yl)piperazin-1-yl)methyl)-1-oxoisoindolin-2-yl)piperidine-2,6-dione]	A (0% ≤ substrate protein remaining % ≤ 80%)	A (0% ≤ substrate protein remaining % ≤ 80%)	A (0% ≤ substrate protein remaining % ≤ 80%)	A (0% ≤ substrate protein remaining % ≤ 80%)	A (0% ≤ substrate protein remaining % ≤ 80%)	A (0% ≤ substrate protein remaining % ≤ 80%)
500 to 1000	O=C1CCC(N2Cc3cc(CN4CCN(c5cccnc5)CC4)ccc3C2=O)C(=O)N1 (stereo not drawn) [GT-04508, 3-(1-oxo-5-((4-(pyridin-3-yl)piperazin-1-yl)methyl)isoindolin-2-yl)piperidine-2,6-dione]	A (0% ≤ substrate protein remaining % ≤ 80%)	A (0% ≤ substrate protein remaining % ≤ 80%)	B (80%< substrate protein remaining %≤ 100%)	A (0% ≤ substrate protein remaining % ≤ 80%)	A (0% ≤ substrate protein remaining % ≤ 80%)	A (0% ≤ substrate protein remaining % ≤ 80%)
500 to 1000	O=C1CCC(N2Cc3c(CN4CCN(c5cccc(Cl)c5Cl)CC4)cccc3C2=O)C(=O)N1 (stereo not drawn) [GT-04528, 3-(4-((4-(2,3-dichlorophenyl)piperazin-1-yl)methyl)-1-oxoisoindolin-2-yl)piperidine-2,6-dione]	B (80%< substrate protein remaining %≤ 100%)	A (0% ≤ substrate protein remaining % ≤ 80%)	B (80%< substrate protein remaining %≤ 100%)	B (80%< substrate protein remaining %≤ 100%)	B (80%< substrate protein remaining %≤ 100%)	B (80%< substrate protein remaining %≤ 100%)
